Source: ChEMBL document CHEMBL4732126, “Design, synthesis, and biodistribution studies of new analogues of marine alkaloids: Potent in vitro and in vivo fungicidal agents against Candida spp” (Eur J Med Chem, 2021)
Converted amounts (≈) assume the structure as drawn.

Tests used:
Type in all cases: functional
Candida tropicalis [1] = test: Antifungal activity against Candida tropicalis ATCC 28707 assessed as reduction in fungal growth incubated for 48 hrs by broth microdilution method
Pichia kudriavzevii [2] = test: Antifungal activity against Candida krusei ATCC 34135 assessed as reduction in fungal growth incubated for 48 hrs by broth microdilution method
Pichia kudriavzevii [3] = test: Antifungal activity against Candida krusei ATCC 34135 assessed as reduction in fungal growth incubated for 48 hrs in presence of sorbitol by broth microdilution method
Nakaseomyces glabratus [4] = test: Antifungal activity against Candida glabrata ATCC 2001 assessed as reduction in fungal growth incubated for 48 hrs by broth microdilution method
Candida albicans [5] = test: Antifungal activity against Candida albicans ATCC 10231 assessed as reduction in fungal growth incubated for 48 hrs in presence of sorbitol by broth microdilution method
Candida tropicalis [6] = test: Antifungal activity against Candida tropicalis ATCC 28707 assessed as reduction in fungal growth incubated for 48 hrs in presence of sorbitol by broth microdilution method
Candida albicans [7] = test: Antifungal activity against Candida albicans ATCC 10231 assessed as reduction in fungal growth incubated for 48 hrs by broth microdilution method
Nakaseomyces glabratus [8] = test: Antifungal activity against Candida glabrata ATCC 2001 assessed as reduction in fungal growth incubated for 48 hrs in presence of sorbitol by broth microdilution method

## CC[C@H](C)C[C@H](C)CCCCCCCCC(=O)N[C@H]1C[C@@H](O)[C@@H](NCCN)NC(=O)[C@@H]2[C@@H](O)CCN2C(=O)[C@H]([C@H](O)CCN)NC(=O)[C@H]([C@H](O)[C@@H](O)c2ccc(O)cc2)NC(=O)[C@@H]2C[C@@H](O)CN2C(=O)[C@H]([C@@H](C)O)NC1=O [CASPOFUNGIN]
Candida tropicalis [1]
  MIC: 0.0625 µg/mL (≈ 0.0572 µM)
Pichia kudriavzevii [2]
  MIC: 0.0625 µg/mL (≈ 0.0572 µM)
Pichia kudriavzevii [3]
  MIC: 0.25 µg/mL
Nakaseomyces glabratus [4]
  MIC: 0.5 µg/mL (≈ 0.457 µM)
Candida albicans [5]
  MIC: 15.6 µg/mL
Candida tropicalis [6]
  MIC: 0.25 µg/mL
Candida albicans [7]
  MIC: 4 µg/mL (≈ 3.66 µM)
Nakaseomyces glabratus [8]
  MIC: 1 µg/mL
